Assay results reported in PubChem BioAssay AID1963422 (Molecular Pharmacology Branch, DTP, NCI, 2024).

System: 463943-066-T-J2-PDC complex spheroid growth
Test: Anticancer human tumor 463943-066-T-J2-PDC patient-derived colon adenocarcinoma cell line growth inhibition [Asc]
Details: for IC50: curve of first compound; for viability, T/C: stronger effect = lower value; active = viability on the fitted dose curve at most 10% of control; inactive = the rest
Outline: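 Stromal components (HUVEC and hMSC) are co-assembled with the cancer cells into multicellular spheroids. Drugs are then added singly or paired, at concentrations falling by half-log increments from a clinically achievable maximum, capped at 10 microM without known Cmax.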
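Note: compound exposure lasted 7 days.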
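Throughout, for viability, T/C: 100% = DMSO vehicle control wells.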

Cc1nc(N2CCC3(CC2)COC(C)C3N)c(CO)nc1Sc1ccnc(N)c1Cl (centres undefined) + CCN1C(C(=O)NC23CCC(C(=O)O)(CC2)CC3)C(c2cccc(Cl)c2F)C2(C(=O)Nc3cc(Cl)ccc32)C12CCCCC2
> 3 µM: IC50 (second compound 0.00949 µM) | IC50 (second compound 0.03 µM) | IC50 (second compound 0.0949 µM) | IC50 (second compound 0.3 µM) | IC50 (second compound 0.949 µM) | IC50 (second compound 3 µM)
inactive: viability, T/C (second compound 0.00949 µM, first compound 0.00949 µM) 96.7% | viability, T/C (second compound 0.00949 µM, first compound 0.03 µM) 88% | viability, T/C (second compound 0.00949 µM, first compound 0.0949 µM) 87% | viability, T/C (second compound 0.00949 µM, first compound 0.3 µM) 81.5% | viability, T/C (second compound 0.00949 µM, first compound 0.949 µM) 82.3% | viability, T/C (second compound 0.00949 µM, first compound 3 µM) 63.6% | viability, T/C (second compound 0.03 µM, first compound 0.00949 µM) 91% | viability, T/C (second compound 0.03 µM, first compound 0.03 µM) 91.3% | viability, T/C (second compound 0.03 µM, first compound 0.0949 µM) 81.2% | viability, T/C (second compound 0.03 µM, first compound 0.3 µM) 82.2% | viability, T/C (second compound 0.03 µM, first compound 0.949 µM) 74% | viability, T/C (second compound 0.03 µM, first compound 3 µM) 60% | viability, T/C (second compound 0.0949 µM, first compound 0.00949 µM) 90.1% | viability, T/C (second compound 0.0949 µM, first compound 0.03 µM) 86.8% | viability, T/C (second compound 0.0949 µM, first compound 0.0949 µM) 76.2% | viability, T/C (second compound 0.0949 µM, first compound 0.3 µM) 75.7% | viability, T/C (second compound 0.0949 µM, first compound 0.949 µM) 71.5% | viability, T/C (second compound 0.0949 µM, first compound 3 µM) 61.9% | viability, T/C (second compound 0.3 µM, first compound 0.00949 µM) 82.7% | viability, T/C (second compound 0.3 µM, first compound 0.03 µM) 82.5% | viability, T/C (second compound 0.3 µM, first compound 0.0949 µM) 82.5% | viability, T/C (second compound 0.3 µM, first compound 0.3 µM) 72.2% | viability, T/C (second compound 0.3 µM, first compound 0.949 µM) 64% | viability, T/C (second compound 0.3 µM, first compound 3 µM) 59.1% | viability, T/C (second compound 0.949 µM, first compound 0.00949 µM) 74.3% | viability, T/C (second compound 0.949 µM, first compound 0.03 µM) 72.2% | viability, T/C (second compound 0.949 µM, first compound 0.0949 µM) 62.7% | viability, T/C (second compound 0.949 µM, first compound 0.3 µM) 62.3% | viability, T/C (second compound 0.949 µM, first compound 0.949 µM) 60.3% | viability, T/C (second compound 0.949 µM, first compound 3 µM) 53.2% | viability, T/C (second compound 3 µM, first compound 0.00949 µM) 70.7% | viability, T/C (second compound 3 µM, first compound 0.03 µM) 64.6% | viability, T/C (second compound 3 µM, first compound 0.0949 µM) 64.1% | viability, T/C (second compound 3 µM, first compound 0.3 µM) 63% | viability, T/C (second compound 3 µM, first compound 0.949 µM) 60.6% | viability, T/C (second compound 3 µM, first compound 3 µM) 49.6%

O=C(c1cc(Cc2n[nH]c(=O)c3ccccc23)ccc1F)N1CCN(C(=O)C2CC2)CC1 + CCN1C(C(=O)NC23CCC(C(=O)O)(CC2)CC3)C(c2cccc(Cl)c2F)C2(C(=O)Nc3cc(Cl)ccc32)C12CCCCC2
inactive: viability, T/C (second compound 0.00949 µM, first compound 0.0316 µM) 99.4% | viability, T/C (second compound 0.00949 µM, first compound 0.1 µM) 102% | viability, T/C (second compound 0.00949 µM, first compound 0.316 µM) 95.9% | viability, T/C (second compound 0.00949 µM, first compound 1 µM) 104% | viability, T/C (second compound 0.00949 µM, first compound 3.16 µM) 106% | viability, T/C (second compound 0.00949 µM, first compound 10 µM) 91.5% | viability, T/C (second compound 0.03 µM, first compound 0.0316 µM) 103% | viability, T/C (second compound 0.03 µM, first compound 0.1 µM) 88.8% | viability, T/C (second compound 0.03 µM, first compound 0.316 µM) 94.6% | viability, T/C (second compound 0.03 µM, first compound 1 µM) 97.4% | viability, T/C (second compound 0.03 µM, first compound 3.16 µM) 96.9% | viability, T/C (second compound 0.03 µM, first compound 10 µM) 89.9% | viability, T/C (second compound 0.0949 µM, first compound 0.0316 µM) 98.5% | viability, T/C (second compound 0.0949 µM, first compound 0.1 µM) 85.4% | viability, T/C (second compound 0.0949 µM, first compound 0.316 µM) 92.7% | viability, T/C (second compound 0.0949 µM, first compound 1 µM) 89.8% | viability, T/C (second compound 0.0949 µM, first compound 3.16 µM) 89.1% | viability, T/C (second compound 0.0949 µM, first compound 10 µM) 81.4% | viability, T/C (second compound 0.3 µM, first compound 0.0316 µM) 87.9% | viability, T/C (second compound 0.3 µM, first compound 0.1 µM) 80.1% | viability, T/C (second compound 0.3 µM, first compound 0.316 µM) 83.4% | viability, T/C (second compound 0.3 µM, first compound 1 µM) 83.2% | viability, T/C (second compound 0.3 µM, first compound 3.16 µM) 76.4% | viability, T/C (second compound 0.3 µM, first compound 10 µM) 83.7% | viability, T/C (second compound 0.949 µM, first compound 0.0316 µM) 76.7% | viability, T/C (second compound 0.949 µM, first compound 0.1 µM) 75.2% | viability, T/C (second compound 0.949 µM, first compound 0.316 µM) 74.3% | viability, T/C (second compound 0.949 µM, first compound 1 µM) 75.8% | viability, T/C (second compound 0.949 µM, first compound 3.16 µM) 75.5% | viability, T/C (second compound 0.949 µM, first compound 10 µM) 72% | viability, T/C (second compound 3 µM, first compound 0.0316 µM) 72.3% | viability, T/C (second compound 3 µM, first compound 0.1 µM) 69.1% | viability, T/C (second compound 3 µM, first compound 0.316 µM) 70.9% | viability, T/C (second compound 3 µM, first compound 1 µM) 71.7% | viability, T/C (second compound 3 µM, first compound 3.16 µM) 70.6% | viability, T/C (second compound 3 µM, first compound 10 µM) 74.7%
> 10 µM: IC50 (second compound 0.00949 µM) | IC50 (second compound 0.03 µM) | IC50 (second compound 0.0949 µM) | IC50 (second compound 0.3 µM) | IC50 (second compound 0.949 µM) | IC50 (second compound 3 µM)
